EP0363589A2, “Somatostatin analogues” (SYNTEX (U.S.A.) INC., priority 1988, dated 1990)

Legend:
[1] = tested on: growth hormone; assay: Nembutal-induced growth hormone assay; format: in vivo, male rats; settings: derived from the growth hormone and insulin assays in rats
Description: After several days of acclimatization, male rats were weight-grouped and used on the succeeding one to three days. The rats were fasted the day prior to use. Each test rat was given an intramuscular (IM) injection of test compound or vehicle (0.1 % BSA-saline) into the right rear leg.
Immediately following the IM injection, a subcutaneous injection of Nembutal (60 mg/kg) was given. Thirteen minutes after Nembutal administration, each rat was exposed to 2 minutes of ether anesthesia followed by the collection of a 1 ml blood sample via the ocular orbit. Serum separator tubes were used to prepare serum from the blood samples. The serum samples were stored at -20°C until analysis by radioimmune assay. The mean percent inhibition of growth hormone was determined for the test compounds using the method as described in Examples 4 and 5 and the EDso derived.

[2] = tested on: insulin-induced glucagon release; assay: Insulin-induced glucagon assay; format: in vivo; settings: derived from the glucagon and insulin assays in rats
Description: After several days of acclimatization, rats were weigh-grouped and used on the succeeding one to three days. The rats were injected subcutaneously with 40 mg/kg pentobarbitol(Nembutal). Approximately 30 minutes after injection, the jugular and the hepatic portal veins were exposed and an injection of 0.1% bovine serum albumin (BSA)-saline vehicle or 1 IU/1 ml/kg porcine insulin in the same vehicle was administered into the jugular vein. At precisely 15 minutes after the intravenous (i.v.)injection a 1 ml blood sample was collected from the hepatic portal vein and the rat sacrificed with C02.
The blood sample was collected into a syringe containing 0.70 mg Na-EDTA and 0.1 mg Aprotinin, a commercially available protease inhibitor, in 0.1 ml 0.9% saline. The blood sample was mixed in the syringe and transferred to a plastic microcontainer serum-separator tube and held in the dark on ice. Plasma was harvested within 6 hours by centrifugation and stored at -20°C. The test material was administered intramuscularly to the animal immediately prior to the i.v. injection of insulin. Plasma samples were analyzed for levels of glucagon using a commercially available radioimmuneassay kit for animal glucagon (Cambridge Medical Technology). […]

Sandostatin
Relative selectivities for growth hormone/insulin [1]: 103 | Relative selectivities for glucagon/insulin [2]: 11
